Reference: patent US10369159B2, “Estrogen receptor β partial agonist having estrogen receptor α inhibitory effect, and gynecological disease therapeutic agent using same” (NOBELPHARMA CO., LTD., priority 2015, dated 2019)

Legend:
rat endometriosis model = test: Wet weight of each organ (pituitary, adrenal glands, left uterine horn, femur) in the rat endometriosis model; assay type: in vivo; details: for Wet weight of pituitary: vehicle 0.0271 g; for Wet weight of adrenal gland (right): vehicle 0.0425 g; for Wet weight of adrenal gland (left): vehicle 0.0468 g; for Wet weight of adrenal glands (the sum of the left and right): vehicle 0.0893 g; for Wet weight of left uterine horn: vehicle 0.1428 g; for Wet weight of femur (left): vehicle 0.7589 g
Description: On the previous day of the model preparation (the grouping date), under inhalation anesthesia of 2% isoflurane, an incision was made in the abdomen of the rats. Subsequently, about 5 mL of blood was collected with a syringe from the abdominal vena cava and collected in a Venoject II vacuum blood collection tube (EDTA-2K), then cut the abdominal vena cava and abdominal aorta to euthanize by exsanguination. The right uterine horn was excised and cut out two strips (approximately 5 mm×5 mm), then cut out strips (approximately 5 mm×5 mm) from the graft sites, the right and left abdominal walls (muscle layer and peritoneum). After that, wet weight of each strip and abdominal wall was measured. Then pituitary, adrenal glands (both sides), left uterine horn, mammary gland (excised with the nipples, three on the lower abdomen, a sample for RNA measurement was approximately 3 mm in diameter) and femur (left side) were excised.
As for the pituitary, adrenal glands (both sides), left uterine horn and femur, wet weight was measured. The femur bone after wet weight measurement was discarded.
The administration was made orally, and the drug was forcibly administered into a stomach once a day using a flexible oral sonde and syringe for 28 consecutive days.
On the next day of the final administration, the abdominal dissection was made under inhalation anesthesia of 2% isoflurane, and the grafted uterine strips (two pieces) were excised, and photographed with a digital camera. Subsequently, about 5 mL of blood was collected with a syringe from the abdominal vena cava and collected in a Venoject II vacuum blood collection tube (EDTA-2K), then cut the abdominal vena cava and abdominal aorta to euthanize by exsanguination. Then pituitary, adrenal glands (both sides), graft uterine strips (two pieces), left uterine horn, mammary gland (excised with the nipples, three on the lower abdomen, a sample for RNA measurement was approximately 3 mm in diameter) and femur (left side) were excised.
As for the pituitary, adrenal glands (both sides), grafted uterine strip (one piece), left uterine horn and femur, wet weight was measured. The femur bone after wet weight measurement was discarded.

Era = test: Gene expression analysis of endometrial implants (TaqMan), Era; assay type: in vivo, rat; details: for Expression level Era: endometrial implants, corrected by GAPDH, n 6, E2 control 44.2 ± 18.9
Description: (§1) Total RNA was extracted […] the rat-derived endometrial graft (27 specimens), then quality of the RNA was inspected with a spectrophotometer and bio-analyzer, and then reverse transcription reaction of the RNA was performed, followed by gene expression analysis was performed according to TaqMan method.
(§2) RNA was extracted from the rat uterine horn strips and grafted uterine strip using the RNeasy Fibrous Tissue Mini Kit.
(§3) Concentration of the extracted RNA was measured with a NanaoDrop. Also RIN measurements using a bioanalyzer (6000 nano kits) was carried out. A 6000 pico-kit was used for bioanalyzing of the two samples with low yield (Sample ID: 202, 507).
(§4) cDNA obtained by reverse transcription reaction from 1000 ng/uL of commercially available Rat Tissue Universal Reference Total RNA (Catalog Number PR-UR-100, ZYAGEN Inc.) using SuperScript VILO Master Mix (hereinafter “Standard”) was used as a standard substance.
(§5) Based on the concentration measured with a spectrophotometer, reverse transcription reaction of the specimen with Super Script VILO Master Mix was performed to give 50 ng/uL of cDNA (the following example). As for the samples with low yield, that is Sample ID: 202, 502, 507, the reverse transcription reaction was performed to give 25 ng/uL, 25 ng/uL, and 12.5 ng/uL of cDNA, respectively.
(§6) TaqMan reaction by using Step One Plus Real-Time PCR System was performed with standard 250, 62.5, 15.625, 3.9, 0.98 ng/well or sample 5.0 ng/well. A cycle of reaction, two minutes at 50° C. and 10 minutes at 95° C., followed by 15 seconds at 95° C. and one minute at 60° C., was repeated 40 cycles, then the fluorescence value FAM was measured in real time after the reaction at 60° C. In addition to the target eight genes, GAPDH gene as an internal control gene was measured. All the standards and samples were measured in triplicate.
(§7) From each of the two calibration curves (target gene, GAPDH gene) obtained from the standard, gene expressions level of the target gene and GAPDH gene of the sample was calculated, respectively. Then, the target gene expression level was corrected by the GAPDH gene expression level, the internal control gene. And then, an average gene expression level of the samples in each group was calculated, followed by the average gene expression level of the two groups was used as a standard to compare with each of the other groups.

Erb = test: Gene expression analysis of endometrial implants (TaqMan), Erb; assay type: in vivo, rat; details: for Expression level Erb: endometrial implants, corrected by GAPDH, n 6, E2 control 2.37 ± 1.07
Description: as §1, §2, §3, §4, §5, §6, §7

PR = test: Gene expression analysis of endometrial implants (TaqMan), PR; assay type: in vivo, rat; details: for Expression level PR: endometrial implants, corrected by GAPDH, n 6, E2 control 101.0 ± 40.3
Description: as §1, §2, §3, §4, §5, §6, §7

VEGF = test: Gene expression analysis of endometrial implants (TaqMan), VEGF; assay type: in vivo, rat; details: for Expression level VEGF: endometrial implants, corrected by GAPDH, n 6, E2 control 1.62 ± 0.43
Description: as §1, §2, §3, §4, §5, §6, §7

IL-6 = test: Gene expression analysis of endometrial implants (TaqMan), IL-6; assay type: in vivo, rat; details: for Expression level IL-6: endometrial implants, corrected by GAPDH, n 6, E2 control 14.24 ± 8.74
Description: as §1, §2, §3, §4
(§8) Based on the concentration measured with a spectrophotometer, reverse transcription reaction of the specimen with Super Script VILO Master Mix was performed to give 50 ng/uL of cDNA (the following example). […]
as §6
as §7, with “Then, the target gene expression level was corrected by the GAPDH gene expression level, the internal control gene.” left out

PEDF = test: Gene expression analysis of endometrial implants (TaqMan), PEDF; assay type: in vivo, rat; details: for Expression level PEDF: endometrial implants, corrected by GAPDH, n 6, E2 control 4.51 ± 1.39
Description: as §1, §2, §3, §4, §8, §6
as §7, with “Then, the target gene expression level was corrected by the GAPDH gene expression level, the internal control gene.” left out

[1] = in comparison with the E2 control group

Wet weight of pituitary (rat endometriosis model; 0.1 mg/kg p.o. 28 days): 0.0226 g | Wet weight of adrenal gland (right) (rat endometriosis model; 0.1 mg/kg p.o. 28 days): 0.0400 g | Wet weight of adrenal gland (left) (rat endometriosis model; 0.1 mg/kg p.o. 28 days): 0.0438 g | Wet weight of adrenal glands (the sum of the left and right) (rat endometriosis model; 0.1 mg/kg p.o. 28 days): 0.0838 g | Wet weight of left uterine horn (rat endometriosis model; 0.1 mg/kg p.o. 28 days): 0.1261 g | Wet weight of femur (left) (rat endometriosis model; 0.1 mg/kg p.o. 28 days): 0.7597 g | Weight trend in comparison with the vehicle control group after the Day 14 (in words) (rat endometriosis model; 0.3 mg/kg and 0.1 mg/kg administered group): very mild weight suppression trend | Wet weight of pituitary (rat endometriosis model; 0.3 mg/kg p.o. 28 days): 0.0187 g | Wet weight of adrenal gland (right) (rat endometriosis model; 0.3 mg/kg p.o. 28 days): 0.0381 g | Wet weight of adrenal gland (left) (rat endometriosis model; 0.3 mg/kg p.o. 28 days): 0.0398 g | Wet weight of adrenal glands (the sum of the left and right) (rat endometriosis model; 0.3 mg/kg p.o. 28 days): 0.0779 g | Wet weight of left uterine horn (rat endometriosis model; 0.3 mg/kg p.o. 28 days): 0.1119 g | Wet weight of femur (left) (rat endometriosis model; 0.3 mg/kg p.o. 28 days): 0.7598 g | Wet weight of pituitary (rat endometriosis model; 1.0 mg/kg p.o. 28 days): 0.0174 g | Wet weight of adrenal gland (right) (rat endometriosis model; 1.0 mg/kg p.o. 28 days): 0.0357 g | Wet weight of adrenal gland (left) (rat endometriosis model; 1.0 mg/kg p.o. 28 days): 0.0375 g | Wet weight of adrenal glands (the sum of the left and right) (rat endometriosis model; 1.0 mg/kg p.o. 28 days): 0.0732 g | Wet weight of left uterine horn (rat endometriosis model; 1.0 mg/kg p.o. 28 days): 0.1016 g | Wet weight of femur (left) (rat endometriosis model; 1.0 mg/kg p.o. 28 days): 0.7301 g | Effect on the estrogen receptor gene expression of Era (in words) (Era; [1]): not observed | Effect on the estrogen receptor gene expression of Erb (in words) (Erb; [1]): not observed
SMILES: CCN(CC)Cc1ccc(OCC[C@H]2CC[C@H]3[C@@H]4[C@H](C)Cc5cc(O)ccc5[C@H]4CC[C@]23C)c(OC)c1 [SR16234, (7α)-21-[4-[(diethylamino)methyl]-2-methoxyphenoxy]-7-methyl-19-norpregna-1,3,5(10)-triene-3-ol]
Wet weight of organs in comparison with the vehicle control group (in words) (rat endometriosis model; SR16234 administered groups, 0.1, 0.3 and 1.0 mg/kg): decreasing trend associated with the dose increase | Expression level Era (Era; 0.1 mg/kg): 39.3 ± 14.3 ng | Expression level Era (Era; 0.3 mg/kg): 47.6 ± 14.9 ng | Expression level Era (Era; 1 mg/kg): 33.2 ± 20.7 ng | Expression level Erb (Erb; 0.1 mg/kg): 4.05 ± 1.88 ng | Expression level Erb (Erb; 0.3 mg/kg): 3.05 ± 1.02 ng | Expression level Erb (Erb; 1 mg/kg): 2.08 ± 1.51 ng | Expression level PR (PR; 0.1 mg/kg): 94.6 ± 37.7 ng | Expression level PR (PR; 0.3 mg/kg): 176.2 ± 81.1 ng | Expression level PR (PR; 1 mg/kg): 127.8 ± 89.1 ng | Effect on gene expression of PR (in words) (PR; [1]): slight increase trend | Expression level VEGF (VEGF; 0.1 mg/kg): 1.44 ± 0.43 ng | Expression level VEGF (VEGF; 0.3 mg/kg): 1.65 ± 0.40 ng | Expression level VEGF (VEGF; 1 mg/kg): 1.33 ± 0.57 ng | Effect on the gene expression of VEGF (in words) (VEGF; [1]): No effect | Expression level IL-6 (IL-6; 0.1 mg/kg): 9.77 ± 9.78 ng | Expression level IL-6 (IL-6; 1 mg/kg): 6.74 ± 4.96 ng | Effect on the gene expression of IL-6 (in words) (IL-6; in comparison with the E2 control group, FIG. 3): dose-dependently inhibited | Expression level PEDF (PEDF; 0.1 mg/kg): 6.44 ± 1.56 ng | Expression level PEDF (PEDF; 1 mg/kg): 5.93 ± 3.01 ng | Effect on the gene expression of PEDF (in words) (PEDF; in comparison with the E2 control group, FIG. 2): increase trend
